Our source for the T/C values is PubChem BioAssay AID264 (DTP/NCI, 2004).

The assay deals with nude mice, LX-1 lung xenograft intrarenal, tumor weight T/C. The experiment in a line: NCI In Vivo Anticancer Drug Screen. Data for tumor model Human Lung LX-1 Xenograft (intrarenal inoculation) in NU/NU Swiss (nude) mice. The following applies: endpoint: mean tumor weight change, higher = larger tumour. The procedure, abridged: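 Compound-treated mice carrying transplanted tumors were compared with vehicle-treated controls. Tumor size was the measured end point, and the value is the treated-group measurement divided by the control-group measurement (T/C).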
On the technique in general: A xenograft is tissue or cells of one species grown in another, often human tumour cells in immunodeficient mice.

The mark [1] stands for this setting: dose: 6.25 mg/kg/injection, schedule: Q01DX010 (sc), vehicle: Klucel (hydroxypropylcellulose) (HPC).
Setting [2] is: dose: 12.5 mg/kg/injection, schedule: Q01DX010 (sc), vehicle: Klucel (hydroxypropylcellulose) (HPC).
[3] abbreviates: dose: 600.0 mg/kg/injection, schedule: Q04DX003 (sc), vehicle: saline with Tween-80.
[4] abbreviates: dose: 1200.0 mg/kg/injection, schedule: Q04DX003 (sc), vehicle: saline with Tween-80.
[5] abbreviates: dose: 150.0 mg/kg/injection, schedule: Q04DX003 (sc), vehicle: saline with Tween-80.
The mark [6] stands for this setting: dose: 150.0 mg/kg/injection, schedule: Q04DX003 (sc), vehicle: saline.
Setting [7] is: dose: 25.0 mg/kg/injection, schedule: Q01DX010 (sc), vehicle: Klucel (hydroxypropylcellulose) (HPC).
The mark [8] stands for this setting: dose: 50.0 mg/kg/injection, schedule: Q01DX010 (sc), vehicle: Klucel (hydroxypropylcellulose) (HPC).
[9] abbreviates: dose: 100.0 mg/kg/injection, schedule: Q01DX010 (sc), vehicle: Klucel (hydroxypropylcellulose) (HPC).
[10] abbreviates: dose: 200.0 mg/kg/injection, schedule: Q01DX010 (sc), vehicle: Klucel (hydroxypropylcellulose) (HPC).

“And” between values parts separate entries of the source, which are not always exact repeats. Identical values can stand only once. Records with an inconclusive call do not appear. Numbered stars: 1 amine (or outer) side, 2 acyl side, 3 side chain; on linkers, the order of the positions; unused ones are H or OH. Bridge positions count the residues as written; N and C are the ends. Square brackets hold non-standard residues; d marks the D form. Peptide text beside a SMILES is read from it. I, II: the chains in the order shown. Actinocin(1to9) = Cc1c2oc3c(C)ccc(C(=O)[*:2])c3nc-2c(C(=O)[*:1])c(N)c1=O; NMeV = CN[CH](C(=O)O)C(C)C; Aze = O=C(O)[CH]1CCN1; Sar = CNCC(=O)O

As for `COc1ccc2c(c1)CCC(c1ccccc1)=C2c1ccc(OCCN2CCCC2)cc1`, the T/C (dose: 100.0 mg/kg/injection, schedule: Q04DX003 (sc), vehicle: Klucel (hydroxypropylcellulose) (HPC)) was 116 % of control; the T/C (dose: 200.0 mg/kg/injection, schedule: Q04DX003 (sc), vehicle: Klucel (hydroxypropylcellulose) (HPC)) is 85 % of control; the T/C (dose: 400.0 mg/kg/injection, schedule: Q04DX003 (sc), vehicle: Klucel (hydroxypropylcellulose) (HPC)) is 57 % of control; the T/C (dose: 800.0 mg/kg/injection, schedule: Q04DX003 (sc), vehicle: Klucel (hydroxypropylcellulose) (HPC)) was 101 % of control.
For `C[C@@H]1C[C@H]2[C@@H]3CCC4=CC(=O)C=C[C@]4(C)[C@@]3(F)[C@@H](O)C[C@]2(C)[C@@]1(O)C(=O)CO`, the T/C by setting is: (dose: 1.56 mg/kg/injection, schedule: Q01DX010 (sc), vehicle: Klucel (hydroxypropylcellulose) (HPC)) 41 % of control; (dose: 3.13 mg/kg/injection, schedule: Q01DX010 (sc), vehicle: Klucel (hydroxypropylcellulose) (HPC)) 32 % of control; under setting [1], 33 % of control; under setting [2], 26 % of control.
In the case of `COc1ccc2c(NCCCCCCCCNc3c4ccccc4nc4cc(OC)ccc34)c3ccccc3nc2c1`, the T/C runs as follows: (dose: 2.0 mg/kg/injection, schedule: Q04DX003 (sc), vehicle: suspension in saline) 96 % of control; (dose: 16.0 mg/kg/injection, schedule: Q04DX003 (sc), vehicle: suspension in saline) 64 % of control.
Turning to `ClC(Cl)(Cl)C1=NCc2nnn(Cc3ccccc3)c2N1`, the T/C is, setting by setting: (dose: 300.0 mg/kg/injection, schedule: Q04DX003 (sc), vehicle: saline with Tween-80) 72 % of control; under setting [3], 67 % of control; under setting [4], 90 % of control; (dose: 2400.0 mg/kg/injection, schedule: Q04DX003 (sc), vehicle: saline with Tween-80) 36 % of control.
With `N#C[C@H](OC1OC(COC2OC(CO)C(O)C(O)C2O)C(O)C(O)C1O)c1ccccc1` (some centres undefined), the T/C reads like this: (dose: 900.0 mg/kg/injection, schedule: Q04DX003 (sc), vehicle: suspension in saline) 82 % of control; (dose: 1800.0 mg/kg/injection, schedule: Q04DX003 (sc), vehicle: suspension in saline) 123 % of control.
Regarding `CN(C)CCN1C(=O)c2cccc3cc(N)cc(c23)C1=O`, the T/C by setting is: (dose: 16.0 mg/kg/injection, schedule: Q04DX003 (sc), vehicle: saline with Tween-80) 157 % of control; (dose: 64.0 mg/kg/injection, schedule: Q04DX003 (sc), vehicle: saline with Tween-80) 113 % of control.
`NC(=S)c1ncn(C2OC(CO)C(O)C2O)c1N` (centres undefined): the T/C by setting is: (dose: 150.0 mg/kg/injection, schedule: Q04DX003 (sc), vehicle: suspension in saline) 87 % of control; (dose: 300.0 mg/kg/injection, schedule: Q04DX003 (sc), vehicle: suspension in saline) 102 % of control; (dose: 600.0 mg/kg/injection, schedule: Q04DX003 (sc), vehicle: suspension in saline) 98 % of control; (dose: 1200.0 mg/kg/injection, schedule: Q04DX003 (sc), vehicle: suspension in saline) 103 % of control.
With `Nc1nc2c(C(=O)N3CCCC3)nnn2c2ccccc12`, the T/C under setting [5] was 55 % of control.
Take `NC(=O)c1ccc[n+](Cc2c(Cl)cccc2Cl)c1`: the T/C is 115 % of control (dose: 50.0 mg/kg/injection, schedule: Q04DX003 (sc), vehicle: saline); 83 % of control (dose: 100.0 mg/kg/injection, schedule: Q04DX003 (sc), vehicle: saline); 90 % of control (dose: 200.0 mg/kg/injection, schedule: Q04DX003 (sc), vehicle: saline).
`N=C(N)Sc1cc(O)ccc1O`: the T/C (dose: 75.0 mg/kg/injection, schedule: Q04DX003 (sc), vehicle: saline) was 91 % of control and the T/C under setting [6] is 164 % of control.
Turning to `CS(=O)(=O)OCCN(CCOS(C)(=O)=O)c1ccc(C=O)cc1`, the T/C is, setting by setting: (dose: 12.5 mg/kg/injection, schedule: Q01DX010 (sc), vehicle: saline) 188 % of control; (dose: 25.0 mg/kg/injection, schedule: Q01DX010 (sc), vehicle: saline) 71 % of control; (dose: 50.0 mg/kg/injection, schedule: Q01DX010 (sc), vehicle: saline) 33 % of control.
Consider `CC(=O)OCC1OC(OC2=C(CC=C(C)C)C(=O)c3ccccc3C2=O)C(OC(C)=O)C(OC(C)=O)C1OC(C)=O` (centres undefined), for which the T/C was 61 % of control under setting [2], 119 % of control under setting [7], 97 % of control under setting [8] and 83 % of control under setting [9].
In the case of `CN(CCN(C)C(=O)CCOS(C)(=O)=O)C(=O)CCOS(C)(=O)=O`, the T/C is, setting by setting: under setting [6], 58 % of control; (dose: 300.0 mg/kg/injection, schedule: Q04DX003 (sc), vehicle: saline) 27 % of control.
For `CCCCNC(C)C1(O)Cc2c(O)c3c(c(O)c2C(OC2CC(N)C(O)C(C)O2)C1)C(=O)c1c(OC)cccc1C3=O` (centres undefined), the T/C reads like this: (dose: 300.0 mg/kg/injection, schedule: Q04DX003 (sc), vehicle: water) 99 % of control; (dose: 600.0 mg/kg/injection, schedule: Q04DX003 (sc), vehicle: water) 84 % of control.
In the case of `C/C(=C\c1ccccc1)[N+](=O)[O-]`, the T/C runs as follows: under setting [1], 60 % of control; under setting [2], 56 % of control; under setting [9], 159 % of control; under setting [10], 196 % of control.
For `[N-]=[N+]=CC(=O)CCC(=O)C=[N+]=[N-]`, the T/C is, setting by setting: (dose: 1.5 mg/kg/injection, schedule: Q01DX010 (sc), vehicle: DMSO) 69 % of control; (dose: 3.0 mg/kg/injection, schedule: Q01DX010 (sc), vehicle: DMSO) 27 % of control.
As for `CC(=S)NC(O)C(=O)c1ccccc1` (centres undefined), the T/C under setting [5] was 109 % of control, the T/C under setting [3] is 63 % of control and the T/C under setting [4] is 99 % of control.
Turning to `Cc1c2oc3c(C)ccc(C(=O)NC4C(=O)NC(C(C)C)C(=O)N5CCCC5C(=O)N(C)CC(=O)N(C)C(C(C)C)C(=O)OC4C)c3nc-2c(C(=O)NC2C(=O)NC(C(C)C)C(=O)N3CCC3C(=O)N(C)CC(=O)N(C)C(C(C)C)C(=O)OC2C)c(N)c1=O` (centres undefined) (I: TV[Aze][Sar][NMeV] / II: TVP[Sar][NMeV]; ester I:1-I:C, II:1-II:C; linker I:N-II:N via Actinocin(1to9); configuration not given here), the T/C is, setting by setting: (dose: 0.25 mg/kg/injection, schedule: Q04DX003 (sc), vehicle: saline + alcohol) 58 % of control; (dose: 0.5 mg/kg/injection, schedule: Q04DX003 (sc), vehicle: saline + alcohol) 44 % of control; (dose: 1.0 mg/kg/injection, schedule: Q04DX003 (sc), vehicle: saline + alcohol) 29 % of control.
Turning to `OC(CCl)CN1CC[N+]2(CC1)CC[N+]1(CCN(CC(O)CCl)CC1)CC2` (centres undefined), the T/C is, setting by setting: (dose: 128.0 mg/kg/injection, schedule: Q01DX010 (sc), vehicle: water) 78 % of control; (dose: 256.0 mg/kg/injection, schedule: Q01DX010 (sc), vehicle: water) 59 % of control.
In the case of `NC(Cc1ccc(N(CCCl)CCCl)cc1)C(=O)O` (centres undefined), the T/C is 75 % of control (dose: 2.5 mg/kg/injection, schedule: Q04DX003 (sc), vehicle: Klucel (hydroxypropylcellulose) (HPC)); 105 % of control (dose: 5.0 mg/kg/injection, schedule: Q04DX003 (sc), vehicle: Klucel (hydroxypropylcellulose) (HPC)); 22 % of control (dose: 40.0 mg/kg/injection, schedule: Q04DX003 (sc), vehicle: Klucel (hydroxypropylcellulose) (HPC)).
As to `CC(=O)OCc1cc(=O)n(C)c2c3c4c(cc12)c(C)cc(=O)n4CO3`, the T/C was 113 % of control under setting [7]; 83 % of control and 222 % of control under setting [8]; 93 % of control and 105 % of control under setting [10].
As for `CCOC(=O)C(CC(C)C)NC(=O)C(N)Cc1ccc(N(CCCl)CCCl)cc1` (centres undefined), the T/C (dose: 15.0 mg/kg/injection, schedule: Q04DX003 (sc), vehicle: water) is 72 % of control and the T/C (dose: 30.0 mg/kg/injection, schedule: Q04DX003 (sc), vehicle: water) was 55 % of control.
Turning to `CCCCCCCCCCCCCCCC(=O)OCC1OC(n2ccc(N)nc2=O)C(O)C1O` (centres undefined), the T/C was 55 % of control (dose: 18.75 mg/kg/injection, schedule: Q04DX003 (sc), vehicle: saline with Tween-80); 43 % of control and 60 % of control (dose: 37.5 mg/kg/injection, schedule: Q04DX003 (sc), vehicle: saline with Tween-80); 70 % of control (dose: 200.0 mg/kg/injection, schedule: Q04DX003 (sc), vehicle: saline with Tween-80).
